Measurements taken from patent US20110144079A1, “ANTIMICROBIAL SYSTEM” (priority 2008, published 2011).
Read-outs that look alike come from different tables or passages of the source.

How the values were obtained:
[1] = tested on: MRSA; experiment: Broth microdilution MIC/MBC; type: cell-based, methicillin-resistant S. aureus; conditions: for MIC: 24 h at 37° C.
Description: (§1) Broth microdilution tests were performed according to NCCLS guidelines. Serial two-fold dilutions of each imidazolium salt (from an original working solution which had been 0.22 μm sterile filtered) in Mueller-Hinton Broth (MHB) (100 μl) were prepared in 96-well micro-titre plates over the range 0.0000625-1% w/v. The inoculum to be tested was prepared by adjusting the turbidity of an actively overnight growing broth culture in MHB to an optical density at 550 nm equivalent to 1×10^8 CFU/ml. The suspension was further diluted to provide a final inoculum density of 2×10^5 CFU/ml in MHB as verified by total viable count. The inoculum to be tested (100 μl, 2×10^5 CFU ml^−1) was added to each well of the microdilution trays which were incubated aerobically for 24 h at 37° C. Positive and negative growth controls were included in every assay (6 replicates). After determining the MICs, minimum bactericidal concentrations (MBCs) were determined by spreading 20 μl of suspension from wells showing no growth onto MHA plates, which were then incubated for 24 h and examined for 99.9% killing.

[2] = tested on: C. tropicalis NCTC 7393; experiment: Broth microdilution MIC/MBC; type: cell-based; conditions: for MIC: C. tropicalis NCTC 7393, 24 h at 37° C.
Description: as §1

[3] = tested on: B. cenocepacia J2315; experiment: Broth microdilution MIC/MBC; type: cell-based
Description: as §1

[4] = tested on: S. aureus ATCC 29213; experiment: Broth microdilution MIC/MBC; type: cell-based; conditions: for MIC: S. aureus ATCC 29213, 24 h at 37° C.
Description: as §1

[5] = tested on: K. aerogenes NCTC 7427; experiment: Broth microdilution MIC/MBC; type: cell-based; conditions: for MIC: K. aerogenes NCTC 7427, 24 h at 37° C.
Description: as §1

[6] = tested on: P. aeruginosa PA01; experiment: Broth microdilution MIC/MBC; type: cell-based; conditions: for MIC: P. aeruginosa PA01, 24 h at 37° C., read-out: MIC
Description: as §1

[7] = tested on: E. coli NCTC 8196; experiment: Broth microdilution MIC/MBC; type: cell-based; conditions: for MIC: E. coli NCTC 8196, 24 h at 37° C.
Description: as §1

[8] = tested on: P. mirabilis NCTC 12442; experiment: Broth microdilution MIC/MBC; type: cell-based; conditions: for MIC: P. mirabilis NCTC 12442, 24 h at 37° C.
Description: as §1

[9] = tested on: S. epidermidis ATCC 12228; experiment: Broth microdilution MIC/MBC; type: cell-based; conditions: for MIC: S. epidermidis ATCC 12228, 24 h at 37° C.
Description: as §1

[10] = tested on: S. epidermidis ATCC 35984; experiment: Broth microdilution MIC/MBC; type: cell-based; conditions: for MIC: S. epidermidis ATCC 35984, 24 h at 37° C.
Description: as §1

[11] = tested on: E-MRSA 15; experiment: Broth microdilution MIC/MBC; type: cell-based
Description: as §1

[12] = tested on: B. cereus; experiment: Broth microdilution MIC/MBC; type: cell-based; conditions: 24 h at 37° C.
Description: as §1

[13] = tested on: MRSA; experiment: Zone of inhibition on MRSA-seeded agar culture plates; type: cell-based, methicillin-resistant S. aureus; conditions: 40 μL of ionic liquid applied to MRSA-seeded agar culture plates
Text: As used herein, CyMIMCI, refers to 1-alkyl-3-methyl-imidazolium chloride ionic liquids, wherein the alkyl group is a straight chain alkyl group having y carbon atoms.

[14] = Pseudomonas aeruginosa, PA01, 24 h

SMILES	MIC [2]	MIC [4]	MIC [5]	MIC [7]	MIC [8]	MIC [9]	MIC [10]	MIC [12]	other results
CCCCCCn1cc[n+](C)c1.[Cl-] [1-alkyl-3-methylimidazolium chlorides 6]	>1644 µM	>1644 µM	>1644 µM	>1644 µM	>1644 µM	>1644 µM	>1644 µM	–	MBC ([1]; 99.9% killing): >1644 µM; MIC [1]: >1644 µM; MBC ([2]; C. tropicalis NCTC 7393, 99.9% killing): >1644 µM; MBC ([3]; B. cenocepacia J2315, 99.9% killing): >1644 µM; MIC ([3]; B. cenocepacia J2315, 24 h at 37° C.): >1644 µM; MBC ([4]; S. aureus ATCC 29213, 99.9% killing): >1644 µM; MBC ([5]; K. aerogenes NCTC 7427, 99.9% killing): >1644 µM; MBC ([6]; P. aeruginosa PA01, 99.9% killing): >1644 µM; MIC [6]: >1644 µM; MBC ([7]; E. coli NCTC 8196, 99.9% killing): >1644 µM; MBC ([8]; P. mirabilis NCTC 12442, 99.9% killing): >1644 µM; MBC ([9]; S. epidermidis ATCC 12228, 99.9% killing): >1644 µM; MBC ([10]; S. epidermidis ATCC 35984, 99.9% killing): >1644 µM; MBC ([11]; E-MRSA 15, 99.9% killing): >1644 µM; MIC ([11]; E-MRSA 15, 24 h at 37° C.): >1644 µM
CCCCCCCC[n+]1ccn(C)c1.[Br][Ag-][Br] [1-alkyl-3-methylimidazolium-AgBr2 8]	168.5 µM	136.69 µM	168.5 µM	136.69 µM	168.5 µM	68.35 µM	68.35 µM	168.5 µM	–
CCCCCCCCCCn1cc[n+](C)c1.[Br][Ag-][Br] [1-alkyl-3-methylimidazolium-AgBr2 10]	79.78 µM	32.68 µM	79.78 µM	32.68 µM	79.78 µM	32.68 µM	32.68 µM	79.78 µM	–
CCCCCCCCCCCC[n+]1ccn(C)c1.[Br][Ag-][Br] [1-alkyl-3-methylimidazolium-AgBr2 12]	75.85 µM	15.66 µM	34.40 µM	31.32 µM	34.40 µM	31.32 µM	15.66 µM	68.81 µM	–
CCCCCCCCCCCCCCCCn1cc[n+](C)c1.[Br][Ag-][Br] [1-alkyl-3-methylimidazolium-AgBr2 16]	34.44 µM	7.23 µM	34.44 µM	28.91 µM	34.44 µM	3.61 µM	3.61 µM	68.89 µM	–
CCCCCCCCCCCCCCCCn1cc[n+](C)c1.CCCCCCCCCCCCCCCCn1cc[n+](C)c1.[Cl][Cu-2]([Cl])([Cl])[Cl] [(1-alkyl-3-methylimidazolium)2CuCl4 16]	44.81 µM	22.41 µM	44.81 µM	44.81 µM	44.81 µM	44.81 µM	22.41 µM	89.63 µM	–
CCCCCCCCCCCCCCCCCCn1cc[n+](C)c1.CCCCCCCCCCCCCCCCCCn1cc[n+](C)c1.[Cl][Cu-2]([Cl])([Cl])[Cl] [(1-alkyl-3-methylimidazolium)2CuCl4 18]	84.57 µM	131.98 µM	338.29 µM	131.98 µM	338.29 µM	131.98 µM	131.98 µM	169.15 µM	–
CCCCCCCCCCCCCCCCn1cc[n+](C)c1.[Cl-] [C16MIMCl]	–	–	–	–	–	–	–	–	Zone Of Inhibition Radius [13]: 6 mm
CCCCCCCCCCCCCCCCCCn1cc[n+](C)c1.[Cl-] [C18MIMCl]	–	–	–	–	–	–	–	–	Zone Of Inhibition Radius [13]: 10 mm
CCCCCCCCCCCCCC[n+]1ccn(C)c1C [IL1, 1,2-dimethyl-3-tetradecylimidazolium bromide, reference compound]	–	–	–	–	–	–	–	–	MIC ([1]; Staphylococcus aureus): 186 µM; MIC [6, 14]: 743 µM; MIC ([7]; Escherichia coli, NCTC8196): 46.5 µM; MIC ([8]; Proteus mirabilis, NCTC12442): 372 µM; MIC ([12]; Bacillus cereus): 372 µM; MIC ([9]; Staphylococcus epidermidis, ATCC12228): 213 µM
CCCCCCCCCCCCCC[N+](C)(C)CCO [IL2, N,N-dimethyl-N-(2-hydroxyethyl)-N-tetradecylammonium bromide, reference compound]	–	–	–	–	–	–	–	–	MIC [6, 14]: 427 µM; MIC ([7]; Escherichia coli, NCTC8196): 53.4 µM; MIC ([8]; Proteus mirabilis, NCTC12442): 427 µM; MIC ([12]; Bacillus cereus): 13.3 µM

Now from value to compound, other results behind:

MIC [2]	MIC [4]	MIC [5]	MIC [7]	MIC [8]	MIC [9]	MIC [10]	MIC [12]	SMILES	other results
36.1 µM	3.76 µM	18.05 µM	15.03 µM	18.05 µM	15.03 µM	15.03 µM	72.2 µM	CCCCCCCCCCCCCC[n+]1ccn(C)c1.[Br][Ag-][Br] [1-alkyl-3-methylimidazolium-AgBr2 14]	–
65.87 µM	27.83 µM	65.87 µM	27.83 µM	65.87 µM	13.91 µM	13.91 µM	65.87 µM	CCCCCCCCCCCCCCCCCC[n+]1ccn(C)c1.[Br][Ag-][Br] [1-alkyl-3-methylimidazolium-AgBr2 18]	–
941.6 µM	470 µM	941.6 µM	470 µM	941.6 µM	470 µM	470 µM	1883.21 µM	CCCCCCCC[n+]1ccn(C)c1.CCCCCCCC[n+]1ccn(C)c1.[Cl][Cu-2]([Cl])([Cl])[Cl] [(1-alkyl-3-methylimidazolium)2CuCl4 8]	–
218.3 µM	101.74 µM	218.3 µM	101.74 µM	218.3 µM	101.74 µM	101.74 µM	1746.4 µM	CCCCCCCCCC[n+]1ccn(C)c1.CCCCCCCCCC[n+]1ccn(C)c1.[Cl][Cu-2]([Cl])([Cl])[Cl] [(1-alkyl-3-methylimidazolium)2CuCl4 10]	–
50.88 µM	50.88 µM	50.88 µM	50.88 µM	50.88 µM	50.88 µM	50.88 µM	407 µM	CCCCCCCCCCCCn1cc[n+](C)c1.CCCCCCCCCCCCn1cc[n+](C)c1.[Cl][Cu-2]([Cl])([Cl])[Cl] [(1-alkyl-3-methylimidazolium)2CuCl4 12]	–
20.01 µM	40.02 µM	40.02 µM	40.02 µM	20.01 µM	20.01 µM	40.02 µM	80.06 µM	CCCCCCCCCCCCCCn1cc[n+](C)c1.CCCCCCCCCCCCCCn1cc[n+](C)c1.[Cl][Cu-2]([Cl])([Cl])[Cl] [(1-alkyl-3-methylimidazolium)2CuCl4 14]	–
